Laboratory results: patent publication US9072757B2, “Combination of an HMG-CoA reductase inhibitor and a farnesyl-pyrophosphate synthase inhibitor for the treatment of diseases related to the persistence and/or accumulation of prenylated proteins” (UNIVERSITE DE LA MEDITERRANEE AIX-MARSEILLE II, priority 2006, dated 2015)

Experiments:
healthy cells = test: Immunohistochemistry: deformed nuclei / toxicity on healthy reference cells; format: cell-based, human; settings: Pravastatin 100 μM for 12 hours, zoledronate 20 μM for 6 hours; in combination or alone (FIG. 3)
Description: (§1) The cell lines are either reference fibroblasts AG16409 from the Coriell Institute, or fibroblasts from biopsies of patients suffering from Restrictive Dermopathy. They are cultivated at 37° C. in 5% CO2 in a P2 room.
(§2) A cell culture is trypsinised and the cells counted on a Neubauer cell.
(§3) Labtech-style culture wells (Nunc, ref 177399) are seeded, at the rate of 5×10^4 cells per well.
(§4) The complete culture medium is supplemented by the treatment or treatments (statin, NBP, or both), and the cells cultivated for an ad hoc time.
(§5) The cells are fixed in a paraformaldehyde 4% solution (in PBS) for 10 minutes at room temperature.
(§6) The primary antibody is diluted to 1/100th in 50 μl of incubation solution and put in contact with the cells for 1 hour at room temperature in a humid chamber.
Incubation with the secondary antibody takes place for 1 hour in 50 ml of incubation solution at room temperature in a humid chamber. The secondary antibodies are of two types: • Anti-mouse donkey, Jackson Immunoresearch, dilution to 1/100th • Anti-goat donkey, Jackson Immunoresearch, dilution to 1/200th […]
(§7) The cells are immersed in a drop of VectaShield (Vector), covered with an object-covering blade and observed on a fluorescence microscope (Leica DMR, Leica Microsystems), equipped with a coolSNAP (Princeton) camera system.

prelamin A = test: Immunohistochemistry (immunomarking): level of prelamin A in healthy reference cells; format: cell-based, human; settings: Pravastatin 100 μM for 12 hours, zoledronate 20 μM for 6 hours; in combination or alone (FIG. 3)
Description: as §1, §2, §3, §4, §5
After defrosting, the cells are incubated for 5 minutes at room temperature in a humid chamber in 50 μl of a permeabilisation solution:
as §6
Incubation with the secondary antibody takes place for 1 hour in 50 ml of incubation solution at room temperature in a humid chamber. […]
as §7

| Compound | level of deformed nuclei (the sign of toxicity on the healthy cells) (healthy cells) | level of prelamin A produced in treated healthy cells (prelamin A) [%] |
| --- | --- | --- |
| CC[C@H](C)C(=O)O[C@H]1C[C@H](O)C=C2C=C[C@H](C)[C@H](CC[C@@H](O)C[C@@H](O)CC(=O)O)[C@H]21 [pravastatin] | approximately 12% | 25 |
| (1-hydroxy-2-imidazol-1-yl-phosphono-ethyl)phosphonic acid [zoledronate] |  | 15 |
